For 23 compounds, IC50 results are on record in US8486968B2, “Compounds” (Boehringer Ingelheim International GmbH, priority 2010, dated 2013).

pIC50: −log10 of the molar value. Bounds are passed on as bounds.

Assay [1] concerns the target T1, mPGES-1 (Homo sapiens, UniProt O14684).
T1 sequence (O14684 1-152): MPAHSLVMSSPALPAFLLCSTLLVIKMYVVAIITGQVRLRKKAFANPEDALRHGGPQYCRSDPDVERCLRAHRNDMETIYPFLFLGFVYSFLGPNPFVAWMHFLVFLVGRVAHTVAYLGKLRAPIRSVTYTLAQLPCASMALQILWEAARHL
The assay can be described thus: A549 cell-based assay (PGE2 formation, IL-1β stimulated, 50% human serum). More on the design: host or cells: A549 cells. On the procedure:
Although the enzymatic assay is a high throughput assay the disadvantage is that it uses a recombinant protein which is not in its natural environment. Accordingly a cellular assay was established in which a cell line of human origin (A549) expressing the mPGES-1 protein was used. In addition in order to mimic the situation in humans in which compounds can be bound to plasma proteins 50% human serum is added in the assay. By having the combination of testing mPGES-1 in a cellular environment and the presence of 50% human serum this assay has a higher relevance to judge the therapeutic potential of a mPGES-inhibitor than the pure enzyme assay.
A549 cells (ATCC: CCL-185) are grown to about 90% confluence in F-12K Nutrient Mixture (Kaighn's Mod. Gibco) containing 10% FBS in a humified incubator at 37° C. and 5% CO2. Cells were detached using Trypsin-EDTA. A549 cells were seeded in a 384-well collagene plate at a density of 7000 cells/well (50 μl) in F-12 medium containing 1% Penicillin-Streptomycin and 50% human serum. The cells were allowed to attach for 3-4 h. After that the cells were incubated for 20-24 h in F-12k medium supplemented with 50% human serum, 1% Penicillin-Streptomycin and containing IL-1β at a final concentration of 5 ng/ml as well as 10 nM arachidonic acid in the presence of a vehicle or a test compound. The total volume is 100 μl.
Concentrations of PGE2 in the cell free medium (10 μl) were measured using a commercially available HTRF kit from Cisbio (as described above). The PGE2 formation in the absence of test compound was taken as 100%.
IC50 values were derived from at 6-8 point titrations using conventional software.

Assay [2] addresses T1, mPGES-1. The assay can be described thus: mPGES-1 enzyme assay (HTRF detection of PGE2). In kind it is biochemical. Further details: made in house; host or cells: Rosetta E. coli (membrane/microsome fraction). The method, then:
Microsomes from Rosetta E. coli bacteria expressing recombinant human mPGES-1 can be derived as described below:
Inoculate 5 ml LB with Ampicilin (50 μg/ml) and Chloramphenicol (34 μg/ml) with bacteria from freeze culture. Incubate 8 h at 37° C. with 200 rpm. Thereafter, inoculate 500-1000 ml LB containing Amp and Chloro with the 5 ml on culture and grow to OD640 of 0.8-1.0. Chill the culture to +4° C. before induction. Induce the culture with IPTG at a final concentration of 400 μM. Express the protein at room temp 18-23° C. with 200 rpm shaking over night.
The following steps can be performed on the following day: • 1. Spin down the cells in 250 ml centrifuge flasks for 15 min at 7000 rpm (Beckmann Coulte Avanti J-E centrifuge) • 2. Dissolve the pellet from 250 ml culture in 12.5 ml homogenization buffer • 3. (15 mM Tris-HCL pH8, 1 mM EDTA pH8, […], 2.5 mM GSH, 1 Tablet Protease inhibitor per 50 ml buffer) • 4. Disintegrate the cells by sonication, 5×10 seconds at 48% amplitude of a 750 W sonifier • 5. Add 2.5 ml MgCl2 (100 mM) and DNase 12.5 μl (0.8 mg/ml) and incubate on ice for 30 min • 6. Spin down the bacteria debris and save the supernatant, 7000 rpm for 15 min • 7. Isolate the protein containing membranes in the supernatant by ultracentrifugation 120000×g for 2 hour at 4° C. (Sorvall T880 rotor). • 8. Discard the supernatant and dissolve the pellet in 20 mM Potassium phosphate buffer pH 7.4 (KH2PO4 and K2HPO4) buffer by sonication (5×10 s, 30% of a 50 W sonifier) and aliquot the enzyme and store aliquots at −80° C.
Before each experiment is performed an aliquot of the enzyme is thawed and it can then be dissolved in 0.1 M Potassium phosphate buffer pH7.4 (KH2PO4 and K2HPO4) buffer containing 2.5 mM GSH.
The aim of this assay is the determine the affinity of a test compound for the mPGES-1 enzyme.
47 μl of recombinant human mPGES-1 (˜0.5 μg protein/well) containing microsomal suspension in a buffer containing GSH, (2.5 mmol/L L-Glutathione reduced, dissolved in 0.1 mol/L Phosphat Buffer pH 7.4) is dispensed in a 384-well plate and thereafter 1 μl of the test compound(s) is/are added and incubated for 25 minutes at room temperature. The enzyme reaction is started by the addition of 2 μl PGH2 (final conc. 2 μM) dissolved in water-free Diglyme. After 60 seconds the reaction is terminated by addition of a stop solution containing FeCl2 (10 μL 0.074 mol/l FeCl2). The samples are diluted between 1:25 in PBS (Phosphate Buffered Saline). 10 μl of the diluted samples are transferred to 384-well low volume plate. In order to quantify the amount of PGE2 that has been formed, a homogenous time resolved fluorescent (HTRF) detecting of PGE2 has been performed using a commercially available kit from Cisbio according to the manufactures recommendation. This HTRF-based assay has been described in detail (see: Goedken et al., J Biomol Screen, 2008, 13(7), 619-625). Briefly, the diluted samples are mixed with 5 μl PGE2-d2 conjungate and 5 μl anti-PGE2 cryptate conjungate. After an incubation period of the plates over night, the fluorescence is measured by the use of an appropriate microplate reader.
The fluorescence of Europium cryptate (maxex=307 nm, maxem=620 nm) and d2-PGE2 (maxex=620 nm, maxem=665 nm) are measured.
The extent of the specific HTRF is measured as a ratio of the emission intensity at 665 nm vs. that at 620 nm at an excitation puls of 320 nm. The quantification plate contains also wells with different concentrations of PGE2 as calibration curve for the calculation of the PGE2 concentrations from the HTRF ratio values.
From all mPGES enzyme assay the background is subtracted and the IC50 is calculated over a nonlinear regression with conventional software.
For orientation: In TR-FRET formats the signal depends on donor and acceptor labels being close together.

Where [3] appears, read: A549 cells, IL-1β 5 ng/ml, 20-24 h, Table B, read-out: mPGES-1 inhibitory effect, IC50, cell assay.
Setting [4] is: recombinant human mPGES-1 microsomes, PGH2 2 μM, Table A, read-out: mPGES-1 inhibitory effect, IC50, enzyme assay.
Where [5] appears, read: Table C comparison of enzym and cell IC50, A549 cells, read-out: Cell IC50.
Setting [6] is: Table C comparison of enzym and cell IC50, read-out: Enzym IC50.

By pIC50 is commonly meant −log10 of the IC50, conventionally taken in molar units. On to `CN(Cc1nncn1C)c1nc2c(cc1C(=O)N[C@H]1CC[C@H](C(F)(F)F)CC1)nc(Nc1c(Cl)ccc(CNC(=O)C(C)(C)C)c1Cl)n2C` [Example 21], for which the pIC50 in assay [1] (setting [3]) was 7.05; in assay [2] (setting [4]), 8.40.
The matching figures for `CN(CC1(C)COC1)c1nc2c(cc1C(=O)N[C@H]1CC[C@H](C(F)(F)F)CC1)nc(Nc1c(Cl)ccc(CNC(=O)C(C)(C)C)c1Cl)n2C` [Example 22]: 7.82 and 8.52.
The matching figures for `Cn1c(Nc2c(Cl)ccc(CNC(=O)C(C)(C)C)c2Cl)nc2cc(C(=O)N[C@H]3CC[C@H](C(F)(F)F)CC3)c(N(CC3CC3)C3CC3)nc21` [Example 23]: 8.30 and 9.00.
The matching figures for `Cn1c(Nc2c(Cl)ccc(CNC(=O)C(C)(C)C)c2Cl)nc2cc(C(=O)Nc3ccc(OC(F)(F)F)cc3)c(N3CCC(C(F)(F)F)CC3)nc21` [Example 24, N-(4-Trifluoromethoxyphenyl)-2-{2,6-dichloro-3-[(2,2-dimethyl-propionylamino)-methyl]-phenylamino}-5-[4-trifluoromethyl-piperidinyl]-3-methyl-3H-imidazo[4,5-b]pyridine-6-carboxamide]: 8.30 and 9.00.
Regarding `CC(C)(C)C(=O)NCc1ccc(Cl)c(Nc2nc3cc(C(=O)N[C@H]4CC[C@H](C(F)(F)F)CC4)c(N4CCOCC4)nc3n2CC(F)F)c1Cl` [Example 25], the figures for the negative logarithm of the IC50 (pIC50) in assay [1] (setting [3]) and in assay [2] (setting [4]) were 8.15 and 8.40, respectively.
With `CN(C)C(=O)Cn1c(Nc2c(Cl)ccc(CNC(=O)C(C)(C)C)c2Cl)nc2cc(C(=O)N[C@H]3CC[C@H](C(F)(F)F)CC3)c(N3CCC(C(F)(F)F)CC3)nc21` [Example 29], the pIC50 was 7.41 in assay [1] (setting [3]) and 8.00 in assay [2] (setting [4]).
As to `CC(NC(=O)c1cc2nc(Nc3c(Cl)ccc(CNC(=O)C(C)(C)C)c3Cl)n(C)c2nc1N1CCC(C(F)(F)F)CC1)C(F)(F)F` (stereo not shown) [Example 31], the pIC50 was 7.70 in assay [1] (setting [3]) and 8.52 in assay [2] (setting [4]).
On to `Cn1c(Nc2c(Cl)ccc(CNC(=O)C(C)(C)C)c2Cl)nc2cc(C(=O)NCC(F)(F)F)c(N3CCC(C(F)(F)F)CC3)nc21` [Example 32], for which the negative logarithm of the IC50 (pIC50) is 7.92 in assay [1] (setting [3]) and 8.40 in assay [2] (setting [4]).
On the same counts, the results for `Cn1c(Nc2c(Cl)ccc(CNC(=O)C(C)(C)C)c2Cl)nc2cc(C(=O)NCCCC(F)(F)F)c(N3CCC(C(F)(F)F)CC3)nc21` [Example 33] are 8.10 and 8.70.
On to `Cn1c(Nc2c(Cl)ccc(CNC(=O)C(C)(C)C)c2Cl)nc2cc(C(=O)NCC(F)(F)C(F)(F)F)c(N3CCC(C(F)(F)F)CC3)nc21` [Example 34], for which the pIC50 in assay [1] (setting [3]) is 8.00; in assay [2] (setting [4]) it was 8.70.
On the same counts, the results for `Cn1c(Nc2c(Cl)ccc(CNC(=O)C(C)(C)C)c2Cl)nc2cc(C(=O)NC3CC(F)(F)C3)c(N3CCC(C(F)(F)F)CC3)nc21` [Example 35] are 7.80 and 8.30.
Regarding `Cn1c(Nc2c(Cl)ccc(CNC(=O)C(C)(C)C)c2Cl)nc2cc(C(=O)N[C@H](c3ccccc3)C(F)(F)F)c(N3CCC(C(F)(F)F)CC3)nc21` [Example 36], the results for the pIC50 in assay [1] (setting [3]) and in assay [2] (setting [4]) were 8.22 and 8.70, respectively.
On the same counts, the results for `Cn1c(Nc2c(Cl)ccc(CNC(=O)C(C)(C)C)c2Cl)nc2cc(C(=O)NC3(c4ccc(F)cc4)CC3)c(N3CCC(C(F)(F)F)CC3)nc21` [Example 37] are 8.10 and 8.52.
The matching figures for `Cn1c(Nc2c(Cl)ccc(CNC(=O)C(C)(C)C)c2Cl)nc2cc(C(=O)NCc3ccc(F)cc3C(F)(F)F)c(N3CCC(C(F)(F)F)CC3)nc21` [Example 38]: 7.80 and 8.70.
On the same counts, the results for `Cn1c(Nc2c(Cl)ccc(CNC(=O)C(C)(C)C)c2Cl)nc2cc(C(=O)Nc3cccc(OC(F)(F)F)c3)c(N3CCC(C(F)(F)F)CC3)nc21` [Example 40] are 7.89 and 8.52.
As to `Cn1c(Nc2c(Cl)ccc(CNC(=O)C(C)(C)C)c2Cl)nc2cc(C(=O)Nc3ccc(F)c(Cl)c3)c(N3CCC(C(F)(F)F)CC3)nc21` [Example 41], the figures for the pIC50 in assay [1] (setting [3]) and in assay [2] (setting [4]) were 8.70 and 9.00, respectively.
The matching figures for `Cn1c(Nc2c(Cl)ccc(CNC(=O)C(C)(C)C)c2Cl)nc2cc(C(=O)NC(c3ccccn3)C(F)(F)F)c(N3CCC(C(F)(F)F)CC3)nc21` (stereo not shown) [Example 42]: 8.40 and 8.70.
In the case of `Cn1c(Nc2c(Cl)ccc(CNC(=O)C(C)(C)C)c2Cl)nc2cc(C(=O)NCc3ncccc3C(F)(F)F)c(N3CCC(C(F)(F)F)CC3)nc21` [Example 43], the pIC50 in assay [1] (setting [3]) is 8.22; in assay [2] (setting [4]) it was 8.30.
In the case of `Cn1c(Nc2c(Cl)ccc(CNC(=O)C(C)(C)C)c2Cl)nc2cc(C(=O)Nc3cccc(C(F)(F)F)n3)c(N3CCC(C(F)(F)F)CC3)nc21` [Example 44], the values for the pIC50 in assay [1] (setting [3]) and in assay [2] (setting [4]) were 7.25 and 8.40, respectively.
The matching figures for `CC(NC(=O)c1cc2nc(Nc3c(Cl)ccc(CNC(=O)C(C)(C)C)c3Cl)n(C)c2nc1N1CCC(C(F)(F)F)CC1)c1cccs1` (stereo not shown) [Example 45]: 7.92 and 8.40.
On the same counts, the results for `Cn1c(Nc2c(Cl)ccc(CNC(=O)C(C)(C)C)c2Cl)nc2cc(C(=O)NCC3CC3)c(N3CCC(C(F)(F)F)CC3)nc21` [Example 46] are 8.10 and above 9.00.
On to `Cn1c(Nc2c(Cl)cc(F)cc2Cl)nc2cc(C(=O)N[C@H]3CC[C@H](C(F)(F)F)CC3)c(OCC(F)F)nc21` [reference compound], for which the results for the pIC50 in assay [1] (setting [5]) and in assay [2] (setting [6]) were 6.79 and 8.40, respectively.
Consider `Cn1c(Nc2cc(CNC(=O)C(C)(C)C)ccc2Cl)nc2cc(C(=O)N[C@H]3CC[C@H](C(F)(F)F)CC3)c(OCC(F)(F)F)cc21` [reference compound], for which the pIC50 in assay [1] (setting [5]) is 7.05; in assay [2] (setting [6]), 8.10.
